The record followed here is patent US6277847A, “Herbicidal isoindolinonyl-and 3,4-dihydroisoquinolonyl-substituted heterocycles” (FMC Corporation, priority 2000, dated 2001).

Type in all cases: in vivo
Test [1] relates to wheat (Triticum aestivum var. Lew). The test can be described thus: pre-emergence herbicidal activity, wheat. The conditions noted are these: 1 kg/Ha, about fourteen days, read-out: pre-emergence herbicidal activity (% control) WHT. On the procedure:
(§1) This example sets forth the methods of herbicidal testing conducted on the specific compounds set forth below. Specifically, the compounds referenced below were tested for pre- and post-emergence herbicidal activity using a variety of crops and weeds. The test plants include, but are not limited to, soybean (Glycine max -- var. Winchester), field corn (Zea mays var. Pioneer 3732), wheat (Triticum aestivum var. Lew), morningglory (Ipomea lacunosa or Ipomea hederacea), velvetleaf (Abutilon theophrasti), green foxtail (Setaria viridis), Johnsongrass (Sorghum halepense), blackgrass (Aloepecurus myosuroides), common chickweed (Stellaria media), and common cocklebur (Xanthium strumarium L.).
(§2) In the post-emergence test, seeds of the plant species named above were planted in flats containing the appropriate soil mixture where they were maintained to allow the seeds to germinate. When the plants in these flats reached the proper stage of growth, flats for the pre-emergence tests were planted in a like manner. The flats containing the post-emergence and pre-emergence test plant species were then sprayed with an appropriately concentrated water/acetone solution of test compound. Once treated the flats were maintained, along with untreated controls, for about fourteen days. All treated plants were then examined for phytotoxicity, which was expressed as percent control where 0 is no effect and 100 is complete control. Effective rates of application for the compounds of the present invention range from 0.001 to 3 kg/ha, more likely from […] to 1 Kg/ha.
(§3) Herbicidal activity data at selected application rates are in Tables 4 and 5. The test compounds are identified by numbers correspond to those in Table 1.
(§4) Rate of application of test compound is 1 kg/Ha
(§5) SOY is soybean, WHT is wheat, CRN is corn, ABUTH is velvetleaf, IPOSS is
(§6) morningglory, STEME is chickweed, XANPE is cocklebur, ALOMY is blackgrass, […]

Test [2] relates to Johnsongrass (Sorghum halepense). The test can be described thus: pre-emergence herbicidal activity, johnsongrass. The conditions noted are these: 1 kg/Ha, about fourteen days, read-out: pre-emergence herbicidal activity (% control) SORHA. On the procedure:
as §1, §2, §3, §4, §5, §6

For test [3], the system named is common cocklebur (Xanthium strumarium L.). The test can be described thus: pre-emergence herbicidal activity, cocklebur. The note with it: 1 kg/Ha, about fourteen days, read-out: pre-emergence herbicidal activity (% control) XANPE. The protocol: as §1, §2, §3, §4, §5, §6
The test system is the same in test [4]. The test can be described thus: post-emergence herbicidal activity, cocklebur. The note with it: 1 Kg/Ha, about fourteen days, read-out: post-emergence herbicidal activity (% control) XANPE. On the procedure: as §1, §2, §3, §5
(§7) morningglory, STEME is chickweed, XANPE is cocklebur, ALOMY is blackgrass,
(§8) Rate of application of test compound is 1 Kg/Ha. The definitions as shown under Table 4 apply to Table 5.

Test [5] has as its system morningglory (Ipomea lacunosa or Ipomea hederacea). The test can be described thus: post-emergence herbicidal activity, morningglory. The note with it: Ipomoea, 1 Kg/Ha, about fourteen days, read-out: post-emergence herbicidal activity (% control) IPOSS. On the procedure:
as §1, §2, §3, §5, §7, §8

For test [6], the system named is velvetleaf (Abutilon theophrasti). The test can be described thus: post-emergence herbicidal activity, velvetleaf. The note with it: 1 Kg/Ha, about fourteen days, read-out: post-emergence herbicidal activity (% control) ABUTH. The protocol:
as §1, §2, §3, §5, §7, §8

Test [7] relates to morningglory (Ipomea lacunosa or Ipomea hederacea). The test can be described thus: pre-emergence herbicidal activity, morningglory. The conditions noted are these: Ipomoea, 1 kg/Ha, about fourteen days, read-out: pre-emergence herbicidal activity (% control) IPOSS. On the procedure: as §1, §2, §3, §4, §5, §6
The test system of test [8] is field corn (Zea mays var. Pioneer 3732). The test can be described thus: pre-emergence herbicidal activity, corn. The conditions noted are these: 1 kg/Ha, about fourteen days, read-out: pre-emergence herbicidal activity (% control) CRN. The protocol:
as §1, §2, §3, §4, §5, §6

Test [9] concerns Johnsongrass (Sorghum halepense). The test can be described thus: post-emergence herbicidal activity, johnsongrass. The conditions noted are these: 1 Kg/Ha, about fourteen days, read-out: post-emergence herbicidal activity (% control) SORHA. The protocol: as §1, §2, §3, §5, §7, §8
Test [10] concerns common chickweed (Stellaria media). The test can be described thus: pre-emergence herbicidal activity, chickweed. The conditions noted are these: 1 kg/Ha, about fourteen days, read-out: pre-emergence herbicidal activity (% control) STEME. The protocol:
as §1, §2, §3, §4, §5, §6

Test [11] deals with green foxtail (Setaria viridis). The test can be described thus: post-emergence herbicidal activity, green foxtail. The conditions noted are these: 1 Kg/Ha, about fourteen days, read-out: post-emergence herbicidal activity (% control) SETVI. On the procedure: as §1, §2, §3, §5, §7, §8
Test [12] deals with velvetleaf (Abutilon theophrasti). The test can be described thus: pre-emergence herbicidal activity, velvetleaf. The note with it: 1 kg/Ha, about fourteen days, read-out: pre-emergence herbicidal activity (% control) ABUTH. The protocol: as §1, §2, §3, §4, §5, §6
Test [13] deals with wheat (Triticum aestivum var. Lew). The test can be described thus: post-emergence herbicidal activity, wheat. The note with it: 1 Kg/Ha, about fourteen days, read-out: post-emergence herbicidal activity (% control) WHT. The protocol:
as §1, §2, §3, §5, §7, §8

Test [14] has as its system soybean (Glycine max -- var. Winchester). The test can be described thus: post-emergence herbicidal activity, soybean. The note with it: 1 Kg/Ha, about fourteen days, read-out: post-emergence herbicidal activity (% control) SOY. On the procedure: as §1, §2, §3, §5, §7, §8
Test [15] deals with common chickweed (Stellaria media). The test can be described thus: post-emergence herbicidal activity, chickweed. The note with it: 1 Kg/Ha, about fourteen days, read-out: post-emergence herbicidal activity (% control) STEME. The protocol:
as §1, §2, §3, §5, §7, §8

In test [16] the test system is field corn (Zea mays var. Pioneer 3732). The test can be described thus: post-emergence herbicidal activity, corn. The conditions noted are these: 1 Kg/Ha, about fourteen days, read-out: post-emergence herbicidal activity (% control) CRN. On the procedure: as §1, §2, §3, §5, §7, §8
The test system of test [17] is green foxtail (Setaria viridis). The test can be described thus: pre-emergence herbicidal activity, green foxtail. The note with it: 1 kg/Ha, about fourteen days, read-out: pre-emergence herbicidal activity (% control) SETVI. The protocol: as §1, §2, §3, §4, §5, §6
Test [18] has as its system soybean (Glycine max -- var. Winchester). The test can be described thus: pre-emergence herbicidal activity, soybean. The conditions noted are these: 1 kg/Ha, about fourteen days, read-out: pre-emergence herbicidal activity (% control) SOY. On the procedure: as §1, §2, §3, §4, §5, §6
Test [19] relates to blackgrass (Aloepecurus myosuroides). The test can be described thus: pre-emergence herbicidal activity, blackgrass. The note with it: Alopecurus myosuroides, 1 kg/Ha, about fourteen days, read-out: pre-emergence herbicidal activity (% control) ALOMY. On the procedure:
as §1, §2, §3, §4, §5, §6

SMILES strings stand for the structures.

Consider `C=CCN1Cc2c(-n3c(=O)cc(C(F)(F)F)n(C)c3=O)ccc(Cl)c2C1=O` [Compound 20], for which the activity at 1000 g/ha in [1], in test [2], in test [3], in [4], in [5] and in [6] was 100% throughout. Besides, the activity at 1000 g/ha in [7], in test [8], in test [9], in test [10], in test [11] and in [12] was 100% throughout. Moreover, the activity at 1000 g/ha in test [13], in test [14], in [15], in test [16], in test [17] and in [18] was 100% each time.

As for `CON1Cc2c(-n3c(=O)cc(C(F)(F)F)n(C)c3=O)ccc(Cl)c2C1=O` [Compound 21], the activity at 1000 g/ha in [1] was 100%; in test [2], 100%; in test [3] it was 100%; in [4], 95%; in test [5], 100%; in test [6], 100%. Further, the activity at 1000 g/ha in test [7], in [8], in [9], in [10], in test [11] and in [12] was 100% throughout. In addition, the activity at 1000 g/ha in test [13] stood at 80%; in [14], 100%; in test [15], 100%; in test [16] it was 80%; in test [17] it was 100%; in test [18], 100%.

Take `CCCN1Cc2c(-n3c(=O)cc(C(F)(F)F)n(C)c3=O)ccc(Cl)c2C1=O` [Compound 13]: the activity at 1000 g/ha in [1] was found to be 100%; in [2], 100%; in test [3] it was 100%; in test [4], 95%; in test [5], 100%; in test [6] it was 100%. Further, the activity at 1000 g/ha in [7], in [19], in [8], in test [9], in test [10] and in test [11] was 100% in each case. Besides, the activity at 1000 g/ha in test [12], in [13], in test [14], in [16], in test [17] and in test [18] was 100% in each case.

For `CCOC(=O)CN1Cc2c(-n3c(=O)cc(C(F)(F)F)n(C)c3=O)ccc(Cl)c2C1=O` [Compound 7], the activity at 1000 g/ha turned out to be 30% in test [1]; 55% in test [2]; 50% in test [3]; 60% in [4]; 40% in [5]; 80% in test [6]. Also, the activity at 1000 g/ha in test [7] worked out at 80%; in test [19], 40%; in [8] it was 70%; in test [9] it was 40%; in test [10] it was 60%; in test [11] it was 60%. In addition, the activity at 1000 g/ha in test [12] came out at 100%; in [13], 20%; in test [14], 60%; in test [16], 40%; in test [17], 70%; in test [18], 70%.

Turning to `Cn1c(C(F)(F)F)cc(=O)n(-c2ccc(Cl)c3c2CN(Cc2ccccc2)C3=O)c1=O` [Compound 10], the activity at 1000 g/ha came to 70% in [1]; 100% in [2]; 80% in [3]; 50% in test [4]; 40% in test [5]; 100% in test [6]. The activity at 1000 g/ha in test [7] was 80%; in test [19], 80%; in test [8], 90%; in test [9] it was 40%; in test [10] it was 100%; in [11] it was 60%. Further, the activity at 1000 g/ha was 100% in [12]; 40% in test [13]; 65% in test [14]; 60% in [16]; 100% in test [17]; 80% in test [18].

With `Cn1c(C(F)(F)F)cc(=O)n(-c2ccc(Cl)c3c2CNC3=O)c1=O` [Compound 12], the activity at 1000 g/ha in test [1] came to 100%; in test [2], 100%; in test [3], 100%; in test [4], 95%; in test [5] it was 75%; in test [6], 100%. Besides, the activity at 1000 g/ha in test [7] came out at 100%; in [19], 100%; in test [8] it was 100%; in [9], 60%; in test [10], 100%; in test [11], 100%. Further, the activity at 1000 g/ha worked out at 100% in test [12]; 70% in test [13]; 95% in test [14]; 70% in [16]; 100% in test [17]; 100% in [18].

For `Cn1c(C(F)(F)F)cc(=O)n(-c2c(Cl)cc(Cl)c3c2CNC3=O)c1=O` [Compound 15], the activity at 1000 g/ha in test [1] came to 95%; in test [2], 100%; in [3] it was 100%; in [4], 60%; in [5], 100%; in test [6], 100%. Further, the activity at 1000 g/ha amounted to 100% in test [7]; 100% in test [19]; 95% in test [8]; 40% in [9]; 60% in test [10]; 60% in test [11]. The activity at 1000 g/ha in test [12] was 100%; in test [13], 50%; in test [14], 70%; in test [16], 60%; in test [17] it was 100%; in test [18], 100%.
